The values below come from patent US20080221330A1, “Mutilin-Derivative Substituted at Position 12” (priority 2004, published 2008).

Structures are written as SMILES. Counter-ions that a name gives are not always drawn.

One assay relates to S. aureus 209P. The assay is described as follows: Minimum inhibitory concentration (MIC) by NCCLS agar dilution technique. Format: cell-based. The procedure:
(§1) The minimum inhibitory concentration (MIC) was determined for each compound by NCCLS agar dilution technique (Methods for dilution antimicrobial susceptibility tests for bacteria that grow aerobically; approved standard-sixth edition. […] The results are shown in Table below and indicate that the compounds of the present invention have high antimicrobial activity.
(In general: In agar dilution the substance is mixed into plates at graded concentrations.)

The subject of the next assay is S. pneumoniae IID 553. The assay is described as above. Format: cell-based. As to the method: as §1

Regarding `CCC[C@]1(C)C[C@@H](OC(=O)NC(=O)[C@H]2CN3CC[C@@H]2C3)[C@@]2(C)C3C(=O)CCC3(CC[C@H]2C)[C@@H](C)[C@@H]1O` (stereo partly drawn) [Example 17, 14-{(3R,4S)-1-azabicyclo[2.2.1]heptane-3-carbonyl}carbamoyl-12-desethenyl-12-propylmutilin hydrochloride], the figures for the “minimum inhibitory concentration (MIC), in vitro antimicrobial activity” value (from here on “minimum inhibitory concentration (MIC)”) with S. aureus 209P and in the assay with S. pneumoniae IID 553 were 0.125 and 2, respectively.

For `CCCC[C@]1(C)C[C@@H](OC(=O)NC(=O)[C@H]2CN3CC[C@@H]2C3)[C@@]2(C)C3C(=O)CCC3(CC[C@H]2C)[C@@H](C)[C@@H]1O` (stereo partly drawn) [Example 18, 12-butyl-14-{(3R,4S)-1-azabicyclo[2.2.1]heptane-3-carbonyl}car bamoyl-12-desethenylmutilin], the “minimum inhibitory concentration (MIC)” value is 0.125 in the assay on S. aureus 209P and 2 in the assay with S. pneumoniae IID 553.

Take `C=C[C@]1(C)C[C@@H](OC(=O)CSCCN(CC)CC)[C@]2(C)[C@H](C)CC[C@]3(CCC(=O)[C@H]32)[C@@H](C)[C@@H]1O` [tiamulin, reference compound]: the “minimum inhibitory concentration (MIC)” value was 0.06-0.125 in the assay on S. aureus 209P and 1-2 in the assay on S. pneumoniae IID 553.

Turning to `CC1C(O)C(C)(C)CC(OC(=O)NC(=O)C2CN3CCC2C3)C2(C)C(C)CCC13CCC(=O)C32.Cl` [Example 2, 14-{(3R,4S)-1-azabicyclo[2.2.1]heptane-3-carbonyl}carbamoyl-12-desethenyl-12-methylmutilin hydrochloride], the “minimum inhibitory concentration (MIC)” value in the assay on S. aureus 209P is 0.125; with S. pneumoniae IID 553 it was 1.

As for `C/C=C/C[C@]1(C)C[C@@H](OC(=O)NC(=O)[C@H]2CN3CC[C@@H]2C3)[C@@]2(C)C3C(=O)CCC3(CC[C@H]2C)[C@@H](C)[C@@H]1O` (stereo partly drawn) [Example 20, 14-{(3R,4S)-1-azabicyclo[2.2.1]heptane-3-carbonyl}carbamoyl-12-[(E)-2-butene-4-yl]-12-desethenylmutilin], the entries for the “minimum inhibitory concentration (MIC)” value in the assay on S. aureus 209P and in the assay with S. pneumoniae IID 553 were 0.06 and 0.5, respectively.

As to `C=CCC1(C)CC(OC(=O)NC(=O)C2CN3CCC2C3)C2(C)C(C)CCC3(CCC(=O)C32)C(C)C1O.Cl` [Example 4, 14-{(3R,4S)-1-azabicyclo[2.2.1]heptane-3-carbonyl}carbamoyl-12-desethenyl-12-(1-propene-3-yl)mutilin hydrochloride], the entries for the “minimum inhibitory concentration (MIC)” value in the assay with S. aureus 209P and in the assay with S. pneumoniae IID 553 were 0.125 and 0.5, respectively.
